Among the data in patent US20230117324A1, “OXAZINE MONOACYLGLYCEROL LIPASE (MAGL) INHIBITORS” (Hoffmann-La Roche Inc., priority 2018, published 2023) are IC50 values, retold here.

Structures are written as SMILES.

For this test, the target named is T1, MAGL (recombinant wild-type) (Homo sapiens, UniProt Q99685).
T1 sequence (Q99685 1-303): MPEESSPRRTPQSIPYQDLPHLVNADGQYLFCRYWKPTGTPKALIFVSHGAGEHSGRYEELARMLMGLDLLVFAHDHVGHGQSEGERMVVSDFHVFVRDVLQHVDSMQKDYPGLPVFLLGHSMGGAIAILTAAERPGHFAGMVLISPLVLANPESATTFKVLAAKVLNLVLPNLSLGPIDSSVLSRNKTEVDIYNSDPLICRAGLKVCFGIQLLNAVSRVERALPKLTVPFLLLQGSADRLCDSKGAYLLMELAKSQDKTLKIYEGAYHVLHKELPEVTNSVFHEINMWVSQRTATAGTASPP
Kind of test: MAGL inhibition, 4-NPA assay (hydrolysis of 4-nitrophenylacetate, absorbance at 405 nm). The class given is biochemical. The settings on record: 4-NPA assay (footnote [a]: values not marked [b]). On the procedure: Compounds were profiled for MAGL inhibitory activity by measuring the enzymatic activity of MAGL by following the hydrolysis of 4-nitrophenylacetate resulting in 4-nitrophenol, which absorbs at 405-412 nm (G. G. Muccioli, G. Labar, D. M. Lambert, Chem. Bio. Chem. 2008, 9, 2704-2710). This assay is hereinafter abbreviated “4-NPA assay”.
The assay was carried out in 384 well assay plates (black with clear bottom, non-binding surface treated, Corning Ref. 3655) in a total volume of 40 μL. Compound dilutions were made in 100% DMSO (VWR Chemicals 23500.297) in a polypropylene plate in 3-fold dilution steps to give a final concentration range in the assay from 25 μM to 1.7 nM. 1 μL compound dilutions (100% DMSO) were added to 19 μL MAGL (recombinant wild-type) in assay buffer (50 mM TRIS (GIBCO, 15567-027), 1 mM EDTA (Fluka, 03690-100 mL)). The plate was shaked for 1 min at 2000 rpm (Variomag Teleshake) and then incubated for 15 min at RT. To start the reaction, 20 μL 4-Nitrophenlyacetate (Sigma N-8130) in assay buffer with 6% EtOH was added. The final concentrations in the assay were 1 nM MAGL and 300 μM 4-Nitrophenylacetate. After shaking (1 min, 2000 rpm) and 5 min incubation at RT, the absorbance at 405 nm was measured for a first time (Molecular Devices, SpectraMax Paradigm). A second measurement was then done after incubation for 80 min at RT. From the two measurements, the slope was calculated by subtracting the first from the second measurement.

Take `CC(c1ccccc1)N1CCN(C(=O)N2CC[C@@H]3OCC(=O)N[C@@H]3C2)CC1` (mixture of isomers) [Example 15, rac-(4aR,8aS)-6-(4-(1-Phenylethyl)piperazine-1-carbonyl)hexahydro-2H-pyrido[4,3-b][1,4]oxazin-3(4H)-one]: the IC50 turned out to be 3000 nM.

With `Cn1ncc2cc(C3CCN(C(=O)N4CC[C@@H]5OCC(=O)N[C@@H]5C4)CC3)ccc21` (racemic) [Example 16, rac-(4aR,8aS)-6-(4-(1-Methyl-1H-indazol-5-yl)piperidine-1-carbonyl)hexahydro-2H-pyrido[4,3-b][1,4]oxazin-3(4H)-one], the half-inhibitory concentration (IC50) was found to be 1500 nM.

On to `O=C1CO[C@@H]2CCN(C(=O)N3CCN([C@@H](c4ccccc4)c4ccc(F)cc4)CC3)C[C@@H]2N1` (racemic) [Example 17, rac-(4aR,8aS)-6-[4-[rac-(4-Fluorophenyl)-phenylmethyl]piperazine-1-carbonyl]-4,4a,5,7,8,8a-hexahydropyrido[4,3-b][1,4]oxazin-3-one], for which the IC50 is 6 nM.

On to `N#C/C(=C\N1CCN(C(=O)N2CC[C@@H]3OCC(=O)N[C@@H]3C2)CC1)c1ccccc1` (racemic) [Example 18, (E/Z)-3-[4-[rac-(4aS,8aR)-3-oxo-4,4a,5,7,8,8a-hexahydropyrido[4,3-b][1,4]oxazine-6-carbonyl]piperazin-1-yl]-2-phenylprop-2-enenitrile], for which the IC50 turned out to be 2100 nM.

For the molecule `O=C1CO[C@H]2CCN(C(=O)N3CCC(c4cn(C(CO)CCl)c5ccc(Cl)cc45)CC3)C[C@H]2N1` (mixture of isomers) [Example 20, rac-(4aR,8aS)-6-(4-(5-Chloro-1-(1-chloro-3-hydroxypropan-2-yl)-1H-indol-3-yl)piperidine-1-carbonyl)hexahydro-2H-pyrido[4,3-b][1,4]oxazin-3(4H)-one], the IC50 came to 2 nM.

Consider `O=C1CO[C@H]2CCN(C(=O)N3CCC(C(CCO)c4ccc(F)cc4)CC3)C[C@H]2N1` (mixture of isomers) [Example 26, rac-cis-6-(4-(1-(4-Fluorophenyl)-3-hydroxypropyl)piperidine-1-carbonyl)hexahydro-2H-pyrido[4,3-b][1,4]oxazin-3(4H)-one], for which the IC50 came out at 33 nM.

`CC(c1ccc(C(F)(F)F)cc1)C1CCN(C(=O)N2CC[C@@H]3OCC(=O)N[C@@H]3C2)CC1` (mixture of isomers) [Example 27, (4aR,8aS)-6-(4-(1-(4-(Trifluoromethyl)phenyl)ethyl)piperidine-1-carbonyl)hexahydro-2H-pyrido[4,3-b][1,4]oxazin-3(4H)-one]: the half-inhibitory concentration (IC50) is 5 nM.

`CC(Oc1ccc(F)cc1Cl)C1CCN(C(=O)N2CC[C@@H]3OCC(=O)N[C@@H]3C2)CC1` (mixture of isomers) [Example 28, rac-(4aR,8aS)-6-(4-(1-(2-Chloro-4-fluorophenoxy)ethyl)piperidine-1-carbonyl)hexahydro-2H-pyrido[4,3-b][1,4]oxazin-3(4H)-one]: the IC50 turned out to be 2 nM.

With `O=C1CO[C@H]2CCN(C(=O)N3CCC(c4c[nH]c5cc(F)ccc45)CC3)C[C@H]2N1` (relative stereo) [Example 5, (+)-cis-6-[4-(6-Fluoro-1H-indol-3-yl)piperidine-1-carbonyl]-4,4a,5,7,8,8a-hexahydropyrido[4,3-b][1,4]oxazin-3-one], the IC50 is 14 nM.

In the case of `O=C1CO[C@H]2CCN(C(=O)N3CCN(C(c4ccc(F)cc4)c4ccc(F)cc4)CC3)C[C@H]2N1` (relative stereo) [Example 11, (+)-cis-6-(4-(bis(4-Fluorophenyl)methyl)piperazine-1-carbonyl)hexahydro-2H-pyrido[4,3-b][1,4]oxazin-3(4H)-one], the IC50 is 8 nM.

For `O=C1CO[C@H]2CCN(C(=O)N3CCC(c4cn(C5COC5)c5ccc(Cl)cc45)CC3)C[C@H]2N1` (relative stereo) [Example 22, (+)- or (−)-cis-6-(4-(5-Chloro-1-(oxetan-3-yl)-1H-indol-3-yl)piperidine-1-carbonyl)hexahydro-2H-pyrido[4,3-b][1,4]oxazin-3(4H)-one], the IC50 is 2 nM.

What is called IC50 is the concentration needed to halve the response being measured.
